Test results published in article PMC7112848 (Journal of Virological Methods, 2008).

Key:
rgH5N1 NA = rgH5N1 NA (Influenza A virus, UniProt Q6DPL2); type: biochemical
viral NAs = type: biochemical, reverse-genetic influenza A viruses rgH1N1, rgH5N1, rgH1N3

rgH5N1 NA, sequence (Q6DPL2 whole entry, looked up): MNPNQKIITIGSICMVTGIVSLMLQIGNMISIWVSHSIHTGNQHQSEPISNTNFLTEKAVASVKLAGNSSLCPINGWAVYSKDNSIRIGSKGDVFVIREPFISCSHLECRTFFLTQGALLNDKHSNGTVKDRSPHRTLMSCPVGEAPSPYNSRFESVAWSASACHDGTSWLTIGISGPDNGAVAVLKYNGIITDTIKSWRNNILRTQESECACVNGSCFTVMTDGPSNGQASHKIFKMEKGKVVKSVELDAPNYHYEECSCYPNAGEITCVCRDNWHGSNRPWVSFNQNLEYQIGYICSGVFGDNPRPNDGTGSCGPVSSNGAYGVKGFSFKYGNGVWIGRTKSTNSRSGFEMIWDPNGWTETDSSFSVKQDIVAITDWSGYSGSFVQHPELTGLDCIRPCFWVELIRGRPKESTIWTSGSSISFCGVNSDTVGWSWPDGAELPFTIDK

SMILES: CC(=O)N[C@@H]1[C@@H](O)C[C@](Oc2ccc3c(C)cc(=O)oc3c2)(C(=O)O)O[C@H]1C(O)[C@H](O)CO (stereo partly drawn) [MUNANA, 2′-(4-methylumbelliferyl)-α-D-N-acetylneuraminic acid]
- Km (rgH5N1 NA): 15 ± 3 µM
- Km (viral NAs): 15 to 18 µM
